Measurements reported in patent US10799456B2, “Multiple drug lipid nanoparticle composition and related methods for extended drug levels in blood and lymph tissue” (priority 2015, dated 2020).
Read-outs that look alike come from different tables or passages of the source.

Experiments:
[1] = pH dependent drug release from LPV/RTV/TFV lipid nanoparticles; format: physicochemical; details: 2 hrs
From the text: As described above, we established the pH-dependent association of various drugs to lipids at neutral pH and the consequent release of the drugs when pH is lowered. Also described above, this stable integration and pH-dependent release of drugs from the multiple drug lipid nanoparticles was consistent for both lipophilic and water soluble compounds. To confirm the pH dependent release of the individual drugs from the multiple drug combination lipid nanoparticles, LPV/RTV/PMPA(TFV) lipid nanoparticles, assembled as described above, were subjected to different pH environments, and the free drug component of the supernatant was assayed to determine the amount of release. […] When a lipid nanoparticle is localized in tissues and taken up by HIV-infected cells, the incorporated antiretroviral drugs are then released inside the cell organelles (such as endosome and lysosomes) when the pH is lowered.

[2] = Plasma time course of ATV/RTV/TFV lipid nanoparticles in primates; format: in vivo, Macaca nemestrina; details: for AUC fraction (% total) 8-168 h: male, Macaca nemestrina, in vivo, sc
Method: All animal procedures were performed under an approved protocol reviewed by the University of Washington Institutional Animal Care and Use Committee. […] ATV, RTV, and TFV in the plasma were extracted in duplicate and analyzed with a liquid chromatography-mass spectrometry assay with a validated reverse phase HPLC/MS/MS method, similar to that of lopinavir (LPV), RTV, and TFV. […] Antimicrobial agents and chemotherapy. 2014. The linear trapezoidal method was used to calculate the area under the plasma drug concentration-time curve (AUC) for ATV, RTV, and TFV during the time course, which was close to 168 h post-dosing. […] All drugs in buffer and plasma were analyzed using a validated HPLC/MS/MS analytical method, capable of analyzing […], and TFV. The one-step analysis for LPV, RTV, and TFV was published previously. […] Antimicrobial agents and chemotherapy. 2014. Briefly, the HPLC system was outfitted with a Shimadzu 20AD HPLC (Shimadzu Scientific Instruments, Inc., Pleasanton, Calif.). […] Multiple reaction monitoring (MRM) was used to detect transition ions from a specific precursor ion to product ion. The analytes were detected using the following m/z transitions: 705.5/168.2 for ATV, 548.3/392.3 for DRV, 721.3/296.1 for RTV, 288.1/176 for TFV, and 238.1/193.2 for cyheptamide.

[3] = Intracellular drug concentration in inguinal lymph node mononuclear cells (LNMCs); details: for Kp at 24 h / concentration at 24 h: male, Macaca nemestrina, in vivo; for Kp at 24 h: LN/plasma ratio; for concentration at 24 h: sc, Mean drug concentration, Lymph node
Method: (§1) Four macaques were divided into two treatment groups (two animals per group). […] Data were normalized to the anti-HIV LNP dose for comparative analysis.
(§2) Plasma was removed, PBMCs were isolated by the density gradient method, and cells were aliquoted into pellets of approximately 2 million PBMCs each. An inguinal lymph node was surgically excised 24 h after drug administration (n=2 per treatment), LNMCs were isolated by passage through a 100-lm nylon cell strainer (Corning, Tewksbury, Mass.), and cells were aliquoted into pellets of approximately 1-2 million LNMCs each. All samples were stored at −80° C. prior to drug analysis.
(§3) Plasma concentrations of all three drugs were analyzed simultaneously by liquid chromatography-tandem mass spectrometry using a recently published method. […] Antimicrob Agents Chemother 2014; 58(5):2675-2680, incorporated herein by reference in its entirety. PBMC and LNMC pellets were lysed using 200 μl water/methanol (1:1 v/v), sonicated for 10 min, and then extracted and analyzed using the same method as cited above. Intracellular concentrations were converted to ng/ml with the assumption that each cell has a volume of 4×10^−9 ml. Alberts B, Johnson A, Lewis J, et al. Molecular Biology of the Cell, 4 ed. Garland Science, New York, 2002, incorporated herein by reference in its entirety.

[4] = Sucrose gradient test of drug association; format: physicochemical; details: 5-20% sucrose gradient, 200,000 g, 4 hr, LPV/RTV/TFV LNPs, single miscible solvent method
Method: The sucrose gradient test to determine this characteristic is described in Example 5. Briefly, the sucrose gradient test comprises subjecting the multi-drug lipid nanoparticle to a continuous 5%-20% sucrose gradient and applying a centrifugal force of 200,000 g for 4 hours. The unassociated small molecules separate and float to the less dense fractions, whereas the associated small molecule agents sediment with the stable lipid nanoparticles in the denser gradients. The relative amounts of the unassociated and associated small molecule reagents can be quantified and, thus, compared.
The sucrose gradient test centrifugation test separates any unbound drugs from multi-drug lipid nanoparticles by sedimentation of lipid-drug particles through a sucrose gradient with increasing density to strip off unbound drugs. Under these conditions, all the free drugs in solution remained at (or floated to) the top of gradient where the sucrose density is low. Specifically, using a continuous gradient of 5-20% (with 65% cushion) sucrose, the lipid-drug particle mixture was subjected to centrifugal force at 200,000 g for 4 hr. Through this process, we were able to separate bound and unbound drug fractions. […] It is noted that the observed percentage of multi drug lipid nanoparticle association for the other two drugs (LPV and RTV) are consistent with data in Table 11.

[5] = system: HIV-2(287) replication; assay: Antiviral activity in HIV-infected CEM-174 cells; format: cell-based
Method: The antiviral activity of the three-drug combination in soluble or LNP form was evaluated in HIV-infected CEM-174 cells as described previously. […] J Acquir Immune Defic Syndr 2003; 34(4):387-397, incorporated herein by reference in its entirety. […] The dose of drugs added to cells represents the sum of bound and unbound drugs in these anti-HIV LNP formulations.

[6] = system: HIV-1; assay: microbe, parasite or virus in culture
[7] = in vivo; details: for concentration at 24 h: sc, Mean drug concentration, Plasma; for LNP/free ratio of plasma AUC 0-168: increase in total drug exposure, fold
From the text: Four young adult male macaques (Macaca nemestrina, 2.9-4.0 kg) were housed and cared for by the Washington National Primate Research Center (WaNPRC) under an approved Institutional Animal Care and Use Committee protocol.
The vehicle for the first suspension was bicarbonate-buffered saline with 3% ethanol and 0.2% bovine serum albumin. The vehicle for the second suspension was bicarbonate-buffered saline with 8% DMSO and 0.1% Tween 20.
as §1, §2, §3
Data were analyzed by paired two-tailed Student's t-test with p<0.05 considered statistically significant.

[8] = Human immunodeficiency virus 2, CEM174, LPV:RTV:PMPA fixed 1:1:0.5 (m/m/m), LNP form, read-out: EC50 (nM), Drug-lipid nanoparticles with 3 drug combination
[9] = Human immunodeficiency virus 2, CEM174, LPV:RTV:PMPA fixed 1:1:0.5 (m/m/m), free form, read-out: EC50 (nM), Soluble 3 drug combination
[10] = Human immunodeficiency virus 1, read-out: EC50 in LNP form
[11] = Human immunodeficiency virus 1, read-out: EC50 in free form
[12] = male, Macaca nemestrina, in vivo
[13] = male, Macaca nemestrina, in vivo, Anti-HIV LNP treatment
[14] = male, Macaca nemestrina, in vivo, Free drug treatment
[15] = plasma, listed as Tenofovir (PMPA)

SMILES | % Drug released from anti-HIV nanoparticles ([1]; pH 4.0, 37° C.) [%] | % Drug released from anti-HIV nanoparticles ([1]; pH 5.5, 37° C.) [%] | % Drug released from anti-HIV nanoparticles ([1]; pH 6.5, 37° C.) [%] | % Drug released from anti-HIV nanoparticles ([1]; pH 7.4, 37° C.) [%] | AUC fraction (% total) 8-168 h [2] [%] | Kp at 24 h ([3]; Free drug treatment, 24 h) | concentration at 24 h ([3]; Anti-HIV LNP treatment) [ng/mL] | concentration at 24 h ([3]; Free drug treatment) [ng/mL] | % association to lipid-drug particles (bound fraction) [4] | EC50 [5, 8] [nM] | EC50 [5, 9] [nM] | EC50 [6, 10] [nM] | EC50 [6, 11] [nM] | AUC 0-8 (%) of total, LNP [7, 12] [%] | AUC 8-168 (%) of total, LNP [7, 12] [%] | concentration at 24 h [7, 13] [ng/mL] | concentration at 24 h [7, 14] [ng/mL] | further results
CC(C)c1nc(CN(C)C(=O)N[C@H](C(=O)N[C@@H](Cc2ccccc2)C[C@H](O)[C@H](Cc2ccccc2)NC(=O)OCc2cncs2)C(C)C)cs1 [Ritonavir (RTV), Ritonavir] | 94.9 ± 0.7 | 29.0 ± 11.6 | 3.2 ± 4.9 | 2 ± 1 | 80.4 | 5.5 | 1640 ± 19 | 32.6 ± 32.6 | 76% | 3 ± 0.8 | 98 ± 0.3 | 30 ± 0.8 | 98 ± 0.3 | 11.3 | 88.7 | 164 ± 116 | 5.9 ± 9.3 | AUC 0-8 h ([2]; plasma, average of two primates, sc ATV/RTV/TFV LNPs 25/12.8/15.3 mg/kg): 339.1 ng·h/mL; EC50 ([5]; Human immunodeficiency virus 2, CEM174, read-out: EC50 (nM), Single agent controls, single agent): 530 ± 0.2 nM; EC50 ([5]; read-out: EC50 (nM), Single agent controls, single agent): 1040 nM; AUC fraction (% of total) Anti-HIV LNP 24-168 h [7, 12]: 57.0 ± 12.5%
C[C@H](Cn1cnc2c(N)ncnc21)OCP(=O)(O)O [Tenofovir (TFV), [(2R)-1-(6-aminopurin-9-yl)propan-2-yl]oxymethylphosphonic acid] | 28.7 ± 0.9 | 11.2 ± 1.5 | 15.9 ± 5.4 | 0 ± 2 | 97.4 | 284 | 190 ± 22.8 | 256 ± 31.5 | around 75.5% | 1.5 ± 0.1 | 49 ± 0.2 | 15 ± 0.1 | 49 ± 0.2 | 9.1 | 90.9 | 3600 ± 3510 | 0.9 ± 1.1 | LNP/free ratio, mononuclear cells of inguinal nodes ([3]; 24 h): 0.7; Ratio comparison between treatments (LNP/free), Lymph node ([3]; 24 h): 0.7; LNP/free ratio, mononuclear cells of inguinal nodes ([3]; 24 h, listed as TFV): 0.7; Kp at 24 h ([3]; Anti-HIV LNP treatment, 24 h): 0.1; % association to lipid-drug particles (bound fraction) ([4]; listed as Tenofovir (TFV or PMPA)): 75.5%; EC50 ([5]; read-out: EC50 (nM), Single agent controls, single agent, listed as PMPA): 1150 ± 0.7 nM; EC50 ([5]; read-out: EC50 (nM), Single agent controls, single agent, listed as Tenofovir (PMPA/TFV)): 100 to 6000 nM; AUC LNP/free ratio ([7]; 0-168 h): 7.0; Ratio comparison between treatments (LNP/free), Plasma ([7]; 24 h): 3992.8; LNP/free ratio of plasma AUC 0-168 [7]: 7.0; LNP/free ratio of plasma AUC 0-168 ([7]; listed as TFV): 7; AUC fraction (% of total) Anti-HIV LNP 0-24 h ([7]; plasma): 48.8 ± 33.7%; AUC fraction (% of total) Free drug 0-24 h ([7]; plasma): 99.9 ± 0.2%; AUC Free drug 0-168 h ([7]; plasma, sc 25/14.3/17.1 mg/kg LPV/RTV/PMPA, four animals): 56600 ± 17040 ng·h/mL; AUC fraction (% of total) Anti-HIV LNP 24-168 h ([7]; plasma, listed as PMPA): 51.2%; AUC fraction (% of total) Free drug 24-168 h ([7]; plasma, listed as PMPA): 0.1%; AUC fraction (% of total) Anti-HIV LNP 24-168 h [7, 15]: 51.2 ± 33.7%; AUC fraction (% of total) Free drug 24-168 h [7, 15]: 0.1 ± 0.2%
